Data as given in the supplement of paper PMC11451515.

Test system: SEM cells
Assay: cell viability relative to DMSO control; higher = less cytotoxic
Details: 48 h
How it was run: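 NOMO1 or SEM (500 cells/well) or P12-Ichikawa (1000 cells/well) leukemia cells were adapted for at least four passages in each medium. They were seeded in 1536-well plates (5 μl) and pin-dosed with library compounds in DMSO over an 11-point threefold series, 47 μM to 0.79 nM. CellTiter-Glo One luminescence was read after 48 h at 37°C. Viability is the per-plate percentage relative to DMSO wells, with cell-free wells as background.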

[1] = HPLM + 10% dialyzed FBS, 0.000781 µM
[2] = HPLM + 10% dialyzed FBS, 0.00234 µM
[3] = HPLM + 10% dialyzed FBS, 0.00702 µM
[4] = HPLM + 10% dialyzed FBS, 0.0211 µM
[5] = HPLM + 10% dialyzed FBS, 0.0632 µM
[6] = HPLM + 10% dialyzed FBS, 0.19 µM
[7] = HPLM + 10% dialyzed FBS, 0.569 µM
[8] = HPLM + 10% dialyzed FBS, 1.71 µM
[9] = HPLM + 10% dialyzed FBS, 5.12 µM
[10] = HPLM + 10% dialyzed FBS, 15.4 µM
[11] = HPLM + 10% dialyzed FBS, 46.1 µM
[12] = RPMI 5 mM glucose + 10% FBS, 0.000781 µM
[13] = RPMI 5 mM glucose + 10% FBS, 0.00234 µM
[14] = RPMI 5 mM glucose + 10% FBS, 0.00702 µM
[15] = RPMI 5 mM glucose + 10% FBS, 0.0211 µM
[16] = RPMI 5 mM glucose + 10% FBS, 0.0632 µM
[17] = RPMI 5 mM glucose + 10% FBS, 0.19 µM
[18] = RPMI 5 mM glucose + 10% FBS, 0.569 µM
[19] = RPMI 5 mM glucose + 10% FBS, 1.71 µM
[20] = RPMI 5 mM glucose + 10% FBS, 5.12 µM
[21] = RPMI 5 mM glucose + 10% FBS, 15.4 µM
[22] = RPMI 5 mM glucose + 10% FBS, 46.1 µM
[23] = RPMI 5 mM glucose + 10% dialyzed FBS, 0.000781 µM
[24] = RPMI 5 mM glucose + 10% dialyzed FBS, 0.00234 µM
[25] = RPMI 5 mM glucose + 10% dialyzed FBS, 0.00702 µM
[26] = RPMI 5 mM glucose + 10% dialyzed FBS, 0.0211 µM
[27] = RPMI 5 mM glucose + 10% dialyzed FBS, 0.0632 µM
[28] = RPMI 5 mM glucose + 10% dialyzed FBS, 0.19 µM
[29] = RPMI 5 mM glucose + 10% dialyzed FBS, 0.569 µM
[30] = RPMI 5 mM glucose + 10% dialyzed FBS, 1.71 µM
[31] = RPMI 5 mM glucose + 10% dialyzed FBS, 5.12 µM
[32] = RPMI 5 mM glucose + 10% dialyzed FBS, 15.4 µM
[33] = RPMI 5 mM glucose + 10% dialyzed FBS, 46.1 µM

SMILES | cell viability [1] | cell viability [2] | cell viability [3] | cell viability [4] | cell viability [5] | cell viability [6] | cell viability [7] | cell viability [8] | cell viability [9] | cell viability [10] | cell viability [11] | cell viability [12] | cell viability [13] | cell viability [14] | cell viability [15] | cell viability [16] | cell viability [17] | cell viability [18] | cell viability [19] | cell viability [20] | cell viability [21] | cell viability [22] | cell viability [23] | cell viability [24] | cell viability [25] | cell viability [26] | cell viability [27] | cell viability [28] | cell viability [29] | cell viability [30] | cell viability [31] | cell viability [32] | cell viability [33]
O=NN(CCCl)C(=O)NC1CCCCC1 | 84.7% | 94.3% | 94.3% | 89.2% | 91.5% | 101% | 111% | 90.8% | 89.9% | 89.3% | 86.7% | 114% | 117% | 113% | 103% | 126% | 93.7% | 122% | 121% | 132% | 109% | 101% | 81.3% | 86.1% | 87.5% | 88.3% | 89.3% | 92.2% | 98.9% | 104% | 101% | 100% | 70.8%
COc1ccc(Cc2ccc(NC(N)=O)cc2)cc1-c1cccc(Cl)c1 | 106% | 104% | 110% | 95.4% | 122% | 123% | 106% | 119% | 120% | 122% | 106% | 100% | 102% | 101% | 117% | 110% | 113% | 113% | 115% | 113% | 115% | 103% | 107% | 111% | 113% | 123% | 124% | 122% | 108% | 111% | 120% | 108% | 87.3%
O=C([O-])C(O)Cc1ccc(O)c(O)c1 (centres undefined) | 93.4% | 111% | 93.6% | 95.6% | 96% | 81.2% | 79.2% | 76.4% | 71.2% | 74.2% | 55% | 102% | 111% | 105% | 96.8% | 107% | 96.3% | 87.3% | 76.2% | 88.5% | 75.7% | 53.4% | 93.7% | 109% | 101% | 96% | 79.8% | 96.3% | 69% | 76.8% | 60.4% | 74.5% | 50.4%
C[C@@H](NC1=CC=CC=C1C(O)=O)C/2=C/C(=C\N3C(=O)/C=C(\N=C23)N4CCOCC4)C | 69.7% | 76.5% | 91.3% | 77.7% | 87.8% | 77.7% | 84.3% | 79.1% | 61.1% | 13.4% | 19.8% | 89.1% | 92.3% | 117% | 92.8% | 104% | 90.6% | 98.2% | 87.5% | 55% | 8.88% | 13.3% | 65% | 76.4% | 91.7% | 87% | 92.7% | 77.8% | 70.3% | 63.9% | 44.1% | 9.08% | 11.2%
COc1cc2nc(N(C)CCCNC(=O)C3CCCO3)nc(N)c2cc1OC (centres undefined) | 53.9% | 66.5% | 58.9% | 80.3% | 84.7% | 84.9% | 75.5% | 89.3% | 74.2% | 79.2% | 73.3% | 60.7% | 61.4% | 64.1% | 71.7% | 87.1% | 102% | 82.9% | 75.3% | 73.4% | 76.4% | 62.2% | 69.7% | 67.7% | 69.5% | 97.7% | 89% | 93.7% | 74.1% | 87.3% | 75% | 77.4% | 67.2%
N=C(CCSCc1csc(N=C(N)N)n1)N[S+](N)(=O)[O-] | 85.8% | 82.3% | 96.9% | 82.6% | 94.5% | 99% | 109% | 98.5% | 106% | 96.1% | 92.6% | 89.9% | 87.6% | 103% | 88% | 91.8% | 102% | 99.4% | 96.5% | 100% | 105% | 92.2% | 80.5% | 80.4% | 107% | 82.2% | 89% | 93.6% | 96.1% | 103% | 107% | 92.6% | 116%
Cc1cn2c(-c3cn[nH]c3)cnc2c(Nc2ccc(C(=O)N3CCNCC3)cc2F)n1 | 105% | 106% | 119% | 103% | 109% | 105% | 107% | 108% | 87.8% | 45.9% | 17% | 98.7% | 99.8% | 107% | 98.5% | 112% | 114% | 96.7% | 109% | 90.6% | 48.3% | 11.8% | 107% | 104% | 105% | 99.5% | 122% | 102% | 114% | 98.2% | 91.7% | 49.9% | 9.99%
Nc1ccccc1NC(=O)c1ccc(CNC(=O)OCc2cccnc2)cc1 | 109% | 120% | 120% | 111% | 118% | 119% | 87.2% | 21.2% | 8.14% | 7.22% | 5.16% | 109% | 117% | 136% | 125% | 132% | 120% | 89.3% | 12.2% | 7.97% | 6.97% | 4.6% | 94.3% | 105% | 99.8% | 114% | 124% | 104% | 76.3% | 13% | 8.44% | 7.8% | 5.76%
